Reference: ChEMBL document CHEMBL1201862, “PubChem BioAssay data set” (2004)
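Method: 48-hour compound exposure of cells in 96-well plates, five concentrations, linear interpolation of endpoints. GI50 marks 50% less growth.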 The source made the active and inactive calls. Cut-off read from the data, not from the text of the source: active = GI50 up to about 1.1 µM and inactive = higher.

Legend:
Test in all cases: NCI tumour cell line growth inhibition, 48 h
SF-539 = test system: SF-539
NCI-H226 = test system: NCI-H226
DMS-114 = test system: DMS-114
M14 = test system: M14
TK-10 = test system: TK-10
UACC-257 = test system: UACC-257
U-251 = test system: U-251
KM12 = test system: KM12
ACHN = test system: ACHN
SF-295 = test system: SF-295
RPMI-8226 = test system: RPMI-8226
SK-MEL-2 = test system: SK-MEL-2
HCT-116 = test system: HCT-116
NCI-H522 = test system: NCI-H522
M19-MEL = test system: M19-MEL
OVCAR-8 = test system: OVCAR-8
HOP-18 = test system: HOP-18
786-0 = test system: 786-0
OVCAR-3 = test system: OVCAR-3
IGROV-1 = test system: IGROV-1
KM-20L2 = test system: KM-20L2
SK-MEL-28 = test system: SK-MEL-28
HOP-92 = test system: HOP-92
COLO 205 = test system: COLO 205
HT-29 = test system: HT-29
SNB-78 = test system: SNB-78
SK-MEL-5 = test system: SK-MEL-5
HCT-15 = test system: HCT-15
OVCAR-5 = test system: OVCAR-5
A549 = test system: A549
MOLT-4 = test system: MOLT-4
CAKI-1 = test system: CAKI-1
OVCAR-4 = test system: OVCAR-4
HL-60 = test system: HL-60
RXF 393 = test system: RXF 393
DMS-273 = test system: DMS-273
SNB-19 = test system: SNB-19
SK-OV-3 = test system: SK-OV-3
HCC 2998 = test system: HCC 2998
LXFL 529 = test system: LXFL 529
XF498 = test system: XF498
LOX IMVI = test system: LOX IMVI
SN12C = test system: SN12C
EKVX = test system: EKVX
HOP-62 = test system: HOP-62
SF-268 = test system: SF-268
UACC-62 = test system: UACC-62
K562 = test system: K562
UO-31 = test system: UO-31
CCRF-CEM = test system: CCRF-CEM
SNB-75 = test system: SNB-75
SW-620 = test system: SW-620
NCI-H460 = test system: NCI-H460
NCI-H23 = test system: NCI-H23
DLD-1 = test system: DLD-1
A498 = test system: A498
Malme-3M = test system: Malme-3M

COc1cc(CC2c3cc(OC)c(OC)cc3CCN2C)c(Oc2cc3c(cc2OC)-c2c(OC)c(OC)c(OC)c4c2C(C3)N(C)CC4)cc1OC (configuration not stated)
GI50 (SF-539): 13 µM (inactive)
GI50 (NCI-H226): 17.2 µM (inactive)
GI50 (DMS-114): 12.1 µM (inactive)
GI50 (M14): 2.4 µM (inactive)
GI50 (TK-10): 15.4 µM (inactive)
GI50 (UACC-257): 6.31 µM (inactive)
GI50 (U-251): 12.6 µM (inactive)
GI50 (KM12): 12.7 µM (inactive)
GI50 (ACHN): 15.8 µM (inactive)
GI50 (SF-295): 14.6 µM (inactive)
GI50 (RPMI-8226): 14 µM (inactive)
GI50 (SK-MEL-2): 14.6 µM (inactive)
GI50 (HCT-116): 11.7 µM (inactive)
GI50 (NCI-H522): 11.7 µM (inactive)
GI50 (M19-MEL): 15 µM (inactive)
GI50 (OVCAR-8): 14.9 µM (inactive)
GI50 (HOP-18): 16.4 µM (inactive)
GI50 (786-0): 8.39 µM (inactive)
GI50 (OVCAR-3): 12.3 µM (inactive)
GI50 (IGROV-1): 14.3 µM (inactive)
GI50 (KM-20L2): 5.93 µM (inactive)
GI50 (SK-MEL-28): 9.64 µM (inactive)
GI50 (HOP-92): 6.53 µM (inactive)
GI50 (COLO 205): 7.23 µM (inactive)
GI50 (HT-29): 8.77 µM (inactive)
GI50 (SNB-78): 17.4 µM (inactive)
GI50 (SK-MEL-5): 4.33 µM (inactive)
GI50 (HCT-15): 10.1 µM
GI50 (OVCAR-5): 16.2 µM (inactive)
GI50 (A549): 15.9 µM (inactive)
GI50 (MOLT-4): 4.52 µM (inactive)
GI50 (CAKI-1): 14.8 µM (inactive)
GI50 (OVCAR-4): 16 µM (inactive)
GI50 (HL-60): 9.29 µM (inactive)
GI50 (RXF 393): 2.9 µM (inactive)
GI50 (DMS-273): 12.5 µM (inactive)
GI50 (SNB-19): 19.4 µM (inactive)
GI50 (SK-OV-3): 19.7 µM (inactive)
GI50 (HCC 2998): 5.32 µM (inactive)
GI50 (LXFL 529): 13.7 µM (inactive)
GI50 (XF498): 13 µM (inactive)
GI50 (LOX IMVI): 6.73 µM (inactive)
GI50 (SN12C): 14 µM (inactive)
GI50 (EKVX): 16.6 µM (inactive)
GI50 (HOP-62): 17.3 µM (inactive)
GI50 (SF-268): 15 µM (inactive)
GI50 (UACC-62): 15.2 µM (inactive)
GI50 (K562): 2.63 µM (inactive)
GI50 (UO-31): 7.93 µM (inactive)
GI50 (CCRF-CEM): 16.4 µM (inactive)
GI50 (SNB-75): 11.4 µM (inactive)
GI50 (SW-620): 15.6 µM (inactive)
GI50 (NCI-H460): 15.6 µM (inactive)
GI50 (NCI-H23): 17.1 µM (inactive)
GI50 (DLD-1): 15.5 µM (inactive)
GI50 (A498): 15.3 µM (inactive)
GI50 (Malme-3M): 2.49 µM (inactive)

C/C=C/C(=O)Oc1cccc2cccnc12
GI50 (SF-539): 7.83 µM (inactive)
GI50 (NCI-H226): 25.1 µM (inactive)
GI50 (DMS-114): 4.22 µM (inactive)
GI50 (M14): 3.79 µM (inactive)
GI50 (TK-10): 44.2 µM (inactive)
GI50 (UACC-257): 4.62 µM (inactive)
GI50 (U-251): 1.14 µM (inactive)
GI50 (KM12): 16 µM (inactive)
GI50 (ACHN): 18.2 µM (inactive)
GI50 (SF-295): 12.1 µM (inactive)
GI50 (RPMI-8226): 9.73 µM (inactive)
GI50 (HCT-116): 3.76 µM (inactive)
GI50 (NCI-H522): 1.82 µM (inactive)
GI50 (M19-MEL): 12.5 µM (inactive)
GI50 (OVCAR-8): 4.61 µM (inactive)
GI50 (HOP-18): 24.5 µM (inactive)
GI50 (786-0): 29.2 µM (inactive)
GI50 (OVCAR-3): 3.24 µM (inactive)
GI50 (IGROV-1): 24.6 µM (inactive)
GI50 (KM-20L2): 8.07 µM (inactive)
GI50 (SK-MEL-28): 14.5 µM (inactive)
GI50 (HOP-92): 8.32 µM (inactive)
GI50 (COLO 205): 18.6 µM (inactive)
GI50 (HT-29): 19.7 µM (inactive)
GI50 (SNB-78): 27.4 µM (inactive)
GI50 (SK-MEL-5): 14.5 µM (inactive)
GI50 (HCT-15): 7 µM
GI50 (OVCAR-5): 16.5 µM (inactive)
GI50 (A549): 18.8 µM (inactive)
GI50 (MOLT-4): > 20.6 µM (inactive)
GI50 (CAKI-1): 32.6 µM (inactive)
GI50 (OVCAR-4): 4.39 µM (inactive)
GI50 (HL-60): 4.32 µM (inactive)
GI50 (RXF 393): 12.4 µM (inactive)
GI50 (DMS-273): 14.6 µM (inactive)
GI50 (SNB-19): 48.8 µM (inactive)
GI50 (SK-OV-3): 32.9 µM (inactive)
GI50 (HCC 2998): 20.6 µM (inactive)
GI50 (LXFL 529): 4.21 µM (inactive)
GI50 (XF498): 8.41 µM (inactive)
GI50 (LOX IMVI): 9.2 µM (inactive)
GI50 (SN12C): 5.87 µM (inactive)
GI50 (EKVX): 6.85 µM (inactive)
GI50 (HOP-62): 26.7 µM (inactive)
GI50 (SF-268): 3.2 µM (inactive)
GI50 (UACC-62): 6.98 µM (inactive)
GI50 (K562): 6.08 µM (inactive)
GI50 (UO-31): 6.97 µM (inactive)
GI50 (CCRF-CEM): 3.7 µM (inactive)
GI50 (SNB-75): 14.4 µM (inactive)
GI50 (SW-620): 5.61 µM (inactive)
GI50 (NCI-H460): 3.32 µM (inactive)
GI50 (NCI-H23): 4.91 µM (inactive)
GI50 (DLD-1): 4.5 µM (inactive)
GI50 (Malme-3M): 1.45 µM (inactive)
